# According to the supplement of paper PMC10307832:
# Tests used:
# Test in all cases: relative viability (nuclei count vs DMSO), 5 days (fraction); higher = more cells survive
# [1] = compound: C1=CC=C(C(=C1)C2=CC=C(C=C2)C3=CSC4=C3C(=C(C(=O)N4)C#N)O)O + C[C@@H](Oc1cc(-c2cnn(C3CCNCC3)c2)cnc1N)c1c(Cl)ccc(F)c1Cl [Crizotinib] (partner 1 µM)
# Summary of the method: (§1)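 One day after seeding in 1536-well plates, lung cancer cell lines were dosed by pin tool. Dosing was either single-drug or a fixed anchor-drug dose plus five library-drug doses (not always all listed) in √10 steps. After 5 days, nuclei were stained in one fix-and-stain step and counted on 4× images, and relative viability is the nuclei count of treated wells over that of vehicle wells, given as the median of duplicate plates.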
# TGX 221 + Palbociclib = compound: CC1=CN2C(=O)C=C(N=C2C(=C1)C(C)NC3=CC=CC=C3)N4CCOCC4 [TGX 221] + CC(=O)c1c(C)c2cnc(Nc3ccc(N4CCNCC4)cn3)nc2n(C2CCCC2)c1=O [Palbociclib] (partner 0.5 µM)
# Summary of the method: as §1
# [2] = compound: O=C(CCCCCCNC(=O)c1cnc(N(c2ccccc2)c2ccccc2)nc1)NO [Ricolinostat] + O=C(CCCCCCC(=O)Nc1ccccc1)NO [Vorinostat] (partner 1 µM)
# Summary of the method: as §1
Cell Line,relative viability ([1]; first compound 0.08 µM),relative viability ([1]; first compound 0.253 µM),relative viability ([1]; first compound 0.8 µM),relative viability ([1]; first compound 2.53 µM),relative viability ([1]; first compound 8 µM),relative viability (TGX 221 + Palbociclib; first compound 0.08 µM),relative viability (TGX 221 + Palbociclib; first compound 0.253 µM),relative viability (TGX 221 + Palbociclib; first compound 0.8 µM),relative viability (TGX 221 + Palbociclib; first compound 2.53 µM),relative viability (TGX 221 + Palbociclib; first compound 8 µM),relative viability ([2]; first compound 0.08 µM),relative viability ([2]; first compound 0.253 µM),relative viability ([2]; first compound 0.8 µM),relative viability ([2]; first compound 2.53 µM)
201T,0.992,1.08,1.06,1.01,1.11,0.356,0.348,0.331,0.337,0.32,0.818,0.951,0.959,0.843
A549,0.493,0.998,0.688,0.885,0.55,–,–,–,–,–,–,–,–,–
A-427,0.905,1.08,0.998,1.05,0.988,0.542,0.546,0.513,0.504,0.516,0.789,0.789,0.624,0.752
ABC-1,0.743,1.55,1.05,0.928,1,0.742,0.519,0.654,0.648,0.597,1.02,1.06,0.749,0.762
BEN,0.771,0.948,0.886,1.02,0.776,0.483,0.413,0.439,0.487,0.503,0.517,0.543,0.592,0.498
CAL-12T,–,0.789,0.441,0.739,0.485,0.466,0.556,0.467,0.326,0.0733,0.801,0.524,0.698,0.379
COR-L23,0.577,0.89,0.772,0.644,0.533,0.247,0.278,0.305,0.3,0.284,0.406,0.383,0.388,0.297
COR-L 105,0.712,1.04,0.646,0.778,0.646,0.417,0.4,0.332,0.473,0.41,0.794,0.825,0.643,0.7
Calu-6,0.614,0.967,0.726,0.863,0.635,–,–,–,–,–,–,–,–,–
ChaGo-K-1,1.06,1.43,1.31,1.17,0.817,0.853,0.835,0.916,0.921,0.935,0.717,0.762,0.73,0.523
EBC-1,0.202,0.21,0.19,0.199,0.191,–,–,–,–,–,–,–,–,–
EKVX,0.947,1.06,0.824,1.36,0.803,0.313,0.418,0.358,0.329,0.299,0.617,0.724,0.62,0.74
EMC-BAC-2,0.741,0.824,0.632,0.821,0.644,0.493,0.492,0.51,0.547,0.439,0.398,0.417,0.25,0.293
EPLC-272H,–,1.04,0.839,0.891,0.796,0.324,0.35,0.32,0.328,0.289,0.343,0.396,0.313,0.174
H3255,0.806,1.01,0.723,0.873,0.815,0.312,0.342,0.331,0.29,0.321,0.735,1.09,0.672,0.591
HARA,–,1.51,1.1,1.05,0.842,0.264,0.28,0.268,0.232,0.246,0.496,0.446,0.377,0.373
HCC-15,0.696,0.885,0.855,0.886,0.692,0.497,0.663,0.718,0.635,0.724,0.768,0.746,0.691,0.618
HCC-44,0.845,0.833,0.754,0.901,0.625,1.02,1.01,1,0.933,0.991,1.16,0.99,1.06,1.06
HCC-78,0.374,0.423,0.443,0.343,0.3,–,0.428,0.464,0.397,0.435,–,0.433,0.395,0.362
HCC-366,0.245,0.779,0.614,0.599,0.285,0.387,0.358,0.418,0.368,0.297,0.296,0.327,0.313,0.165
HCC-827,1.02,0.959,0.965,1.03,0.926,0.489,0.468,0.487,0.436,0.425,0.768,0.86,0.574,0.915
HOP-62,0.901,1.14,0.983,1.04,0.783,0.429,0.449,0.484,0.509,0.43,0.572,0.537,0.478,0.292
IA-LM,0.826,0.914,0.714,0.882,0.439,–,–,–,–,–,–,0.96,0.8,0.647
LC-2-ad,0.42,0.489,0.452,0.49,0.438,0.478,0.519,0.483,0.503,0.447,0.68,0.67,0.64,0.458
LCLC-97TM1,0.428,0.65,0.495,0.271,0.191,0.184,0.263,0.238,0.206,0.232,0.487,0.556,0.628,0.333
LCLC-103H,1.09,1.17,0.967,1.18,1.02,0.472,0.471,0.469,0.424,0.495,0.662,0.738,0.639,0.522
LK-2,–,–,0.236,0.21,0.296,0.647,0.612,0.621,0.673,0.833,0.393,0.311,0.261,0.192

Cell Line,relative viability ([1]; first compound 0.08 µM),relative viability ([1]; first compound 0.253 µM),relative viability ([1]; first compound 0.8 µM),relative viability ([1]; first compound 2.53 µM),relative viability ([1]; first compound 8 µM),relative viability (TGX 221 + Palbociclib; first compound 0.08 µM),relative viability (TGX 221 + Palbociclib; first compound 0.253 µM),relative viability (TGX 221 + Palbociclib; first compound 0.8 µM),relative viability (TGX 221 + Palbociclib; first compound 2.53 µM),relative viability (TGX 221 + Palbociclib; first compound 8 µM),relative viability ([2]; first compound 0.08 µM),relative viability ([2]; first compound 0.253 µM),relative viability ([2]; first compound 0.8 µM),relative viability ([2]; first compound 2.53 µM)
LOU-NH91,0.718,0.772,0.792,0.667,0.704,0.612,0.511,0.448,0.492,0.517,–,0.955,0.782,0.755
LU99A,0.52,0.524,0.598,0.616,0.527,0.383,0.344,0.373,0.405,0.366,0.513,0.473,0.462,0.326
LXF-289,0.779,0.852,0.789,0.845,0.826,0.595,0.628,0.612,0.641,0.568,0.697,0.723,0.681,0.483
NCI-H23,0.466,0.686,0.381,0.511,0.386,0.479,0.441,0.424,0.479,0.389,0.426,0.586,0.407,0.342
NCI-H322M,0.708,0.535,0.882,0.99,0.868,0.492,0.484,0.478,0.459,0.388,0.621,0.834,0.827,0.804
NCI-H358,0.59,0.478,0.718,0.516,0.553,0.116,0.118,0.149,0.116,0.125,0.599,0.633,0.482,0.34
NCI-H441,0.738,0.873,0.839,0.777,0.525,0.239,0.203,0.217,0.185,0.21,0.735,0.76,0.643,0.54
NCI-H460,–,1.03,0.955,1.03,0.27,0.101,0.179,0.159,0.228,0.168,0.594,0.677,0.573,0.194
NCI-H520,0.517,1.03,0.78,0.981,0.524,0.156,0.139,0.146,0.166,0.132,–,0.659,0.629,0.532
NCI-H522,–,–,–,–,–,0.941,1.01,0.929,0.944,0.815,0.836,0.919,0.855,0.628
NCI-H596,0.96,1.02,1.08,0.97,0.834,–,–,–,–,–,0.61,0.645,0.567,0.432
NCI-H647,0.79,1.24,1.23,1.14,0.924,0.296,0.297,0.283,0.232,0.275,0.562,0.464,0.52,0.441
NCI-H650,0.713,1.05,0.633,0.703,0.719,0.303,0.294,0.307,0.32,0.273,0.355,0.434,0.367,0.296
NCI-H661,–,1.11,0.94,1.07,0.952,0.427,0.43,0.396,0.406,0.376,0.68,0.716,0.722,0.558
NCI-H727,0.701,0.961,0.864,0.995,0.756,0.643,0.518,0.667,0.679,0.602,1.13,1.15,1.08,0.936
NCI-H838,0.639,1.08,0.892,0.794,0.732,0.213,0.187,0.19,0.188,0.179,0.725,0.689,0.582,0.315
NCI-H1299,0.878,1.02,0.987,0.968,0.947,–,–,–,–,–,–,–,–,–
NCI-H1355,1.2,1.16,0.991,1.03,0.841,0.366,0.348,0.372,0.338,0.302,0.64,0.627,0.619,0.533
NCI-H1395,–,–,–,–,–,0.609,0.537,0.51,0.467,0.487,–,0.833,0.468,0.674
NCI-H1437,0.699,0.989,0.883,1.01,0.765,0.294,0.317,0.324,0.276,0.295,0.853,0.712,0.611,0.426
NCI-H1563,0.736,0.862,0.884,0.904,0.858,–,–,–,–,–,–,–,–,–
NCI-H1648,–,–,–,–,–,–,0.247,0.231,0.25,0.273,–,0.483,0.458,0.254
NCI-H1650,–,1.16,0.943,1.06,0.919,0.305,0.298,0.294,0.257,0.191,0.544,0.535,0.485,0.372
NCI-H1703,0.452,0.811,0.827,0.844,0.56,–,–,–,–,–,–,–,–,–
NCI-H1793,–,–,–,–,–,0.282,0.277,0.271,0.273,0.223,0.519,0.72,0.566,0.726
NCI-H2342,–,–,–,–,–,0.541,0.529,0.492,0.517,0.531,0.693,0.694,0.757,0.745
SW 900,–,–,–,–,–,–,0.429,0.427,0.356,0.295,0.446,0.61,0.483,0.327
